Data as given in ChEMBL document CHEMBL1201862, “PubChem BioAssay data set” (2004).
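1) Cells in 96-well plates. 2) Compound, 48 h, 5 concentrations. 3) Linear interpolation between surrounding doses. 4) Unreached endpoint = highest concentration. Abbreviation: GI50, concentration required for 50% inhibition of growth.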 Activity calls are given as the source filed them. Rule as the data show it: active = GI50 up to about 1.1 µM and inactive = higher.

Legend:
Test in all cases: inhibition of tumour cell growth, NCI panel, 48 h
[1] = system: TK-10
[2] = system: SNB-75
[3] = system: HCT-116
[4] = system: OVCAR-3
[5] = system: LXFL 529
[6] = system: HL-60
[7] = system: RXF 631
[8] = system: SW-620
[9] = system: SNB-19
[10] = system: LOX IMVI
[11] = system: OVCAR-8
[12] = system: Malme-3M
[13] = system: HOP-62
[14] = system: OVCAR-4
[15] = system: HOP-92
[16] = system: DLD-1
[17] = system: OVCAR-5
[18] = system: NCI-H23
[19] = system: UO-31
[20] = system: SF-295
[21] = system: SF-268
[22] = system: HCT-15
[23] = system: 786-0
[24] = system: UACC-62
[25] = system: A498
[26] = system: M14
[27] = system: HT-29
[28] = system: NCI-H460
[29] = system: NCI-H226
[30] = system: NCI-H522
[31] = system: CAKI-1
[32] = system: M19-MEL
[33] = system: RPMI-8226
[34] = system: SN12C
[35] = system: HCC 2998
[36] = system: ACHN
[37] = system: KM-20L2
[38] = system: KM12
[39] = system: DMS-114
[40] = system: U-251
[41] = system: HOP-18
[42] = system: SK-MEL-28
[43] = system: SK-OV-3
[44] = system: MOLT-4
[45] = system: K562
[46] = system: CCRF-CEM
[47] = system: IGROV-1
[48] = system: A549
[49] = system: SK-MEL-5
[50] = system: SK-MEL-2
[51] = system: COLO 205
[52] = system: EKVX
[53] = system: UACC-257
[54] = system: SF-539
[55] = system: RXF 393
[56] = system: SNB-78
[57] = system: PC-3
[58] = system: NCI/ADR-RES
[59] = system: DMS-273
[60] = system: MCF7
[61] = system: DU-145
[62] = system: XF498
[63] = system: MDA-N
[64] = system: MDA-MB-435
[65] = system: T47D
[66] = system: Hs-578T
[67] = system: MDA-MB-231
[68] = system: SR
[69] = system: BT-549

Q: Which results are given for COc1cc(CC(=O)c2ccc3c(c2)OCO3)cc(OC)c1OC?
A: GI50 [1]: > 100 µM (inactive); GI50 [2]: > 100 µM (inactive); GI50 [3]: > 100 µM (inactive); GI50 [4]: > 100 µM (inactive); GI50 [5]: > 100 µM (inactive); GI50 [6]: > 100 µM (inactive); GI50 [7]: 53.7 µM (inactive); GI50 [8]: 19.3 µM (inactive); GI50 [9]: > 100 µM (inactive); GI50 [10]: > 10 µM (inactive); GI50 [11]: > 100 µM (inactive); GI50 [12]: > 100 µM (inactive); GI50 [13]: > 100 µM (inactive); GI50 [14]: > 100 µM (inactive); GI50 [15]: > 100 µM (inactive); GI50 [16]: > 100 µM (inactive); GI50 [17]: > 100 µM (inactive); GI50 [18]: > 100 µM (inactive); GI50 [19]: > 100 µM (inactive); GI50 [20]: > 100 µM (inactive); GI50 [21]: > 100 µM (inactive); GI50 [22]: > 100 µM; GI50 [23]: > 100 µM (inactive); GI50 [24]: > 100 µM (inactive); GI50 [25]: > 100 µM (inactive); GI50 [26]: > 100 µM (inactive); GI50 [27]: > 100 µM (inactive); GI50 [28]: 73.3 µM (inactive); GI50 [29]: > 100 µM (inactive); GI50 [30]: > 100 µM (inactive); GI50 [31]: > 100 µM (inactive); GI50 [32]: > 100 µM (inactive); GI50 [33]: 44 µM (inactive); GI50 [34]: > 100 µM (inactive); GI50 [35]: > 100 µM (inactive); GI50 [36]: > 100 µM (inactive); GI50 [37]: > 100 µM (inactive); GI50 [38]: 68.4 µM (inactive); GI50 [39]: 27.9 µM (inactive); GI50 [40]: 46.6 µM (inactive); GI50 [41]: > 100 µM (inactive); GI50 [42]: > 100 µM (inactive); GI50 [43]: > 100 µM (inactive); GI50 [44]: > 100 µM (inactive); GI50 [45]: 93.5 µM (inactive); GI50 [46]: > 100 µM (inactive); GI50 [47]: > 100 µM (inactive); GI50 [48]: > 100 µM (inactive); GI50 [49]: > 100 µM (inactive); GI50 [50]: > 100 µM (inactive); GI50 [51]: > 100 µM (inactive); GI50 [52]: > 100 µM (inactive); GI50 [53]: > 100 µM (inactive); GI50 [54]: > 100 µM (inactive); GI50 [55]: 62.5 µM (inactive); GI50 [56]: > 100 µM (inactive)

Q: For O=C1C=CC(=O)c2c(O)ccc(O)c21 [NAPHTHAZALIN], which GI50 [57] is on record?
A: 12.8 µM (inactive)

Q: What about the GI50 [1] of the same compound?
A: 1.26 µM (inactive)

Q: And the GI50 [2]?
A: 2.09 µM (inactive)

Q: And the GI50 [3]?
A: 0.9 µM (active)

Q: What about the GI50 [4] of the same compound?
A: 2.09 µM (inactive)

Q: And the GI50 [5]?
A: 0.535 µM (active)

Q: And the GI50 [58]?
A: 1.92 µM (inactive)

Q: What about the GI50 [6] of the same compound?
A: 0.292 µM (active)

Q: What about the GI50 [59] of the same compound?
A: 3.17 µM (inactive)

Q: And the GI50 [8]?
A: 0.377 µM (active)

Q: What about the GI50 [9] of the same compound?
A: 8.41 µM (inactive)

Q: What about the GI50 [10] of the same compound?
A: 1.56 µM (inactive)

Q: And the GI50 [11]?
A: 0.91 µM (active)

Q: And the GI50 [12]?
A: 1.18 µM (inactive)

Q: And the GI50 [13]?
A: 9.75 µM (inactive)

Q: What about the GI50 [14] of the same compound?
A: 2.39 µM (inactive)

Q: What about the GI50 [15] of the same compound?
A: 1.69 µM (inactive)

Q: And the GI50 [16]?
A: 0.326 µM (active)

Q: And the GI50 [17]?
A: 6.95 µM (inactive)

Q: And the GI50 [60]?
A: 2.32 µM (inactive)

Q: What about the GI50 [18] of the same compound?
A: 2.61 µM (inactive)

Q: And the GI50 [19]?
A: 2.11 µM (inactive)

Q: And the GI50 [20]?
A: 7.91 µM (inactive)

Q: What about the GI50 [21] of the same compound?
A: 2.52 µM (inactive)

Q: What about the GI50 [22] of the same compound?
A: 0.753 µM

Q: What about the GI50 [23] of the same compound?
A: 1.14 µM (inactive)

Q: What about the GI50 [24] of the same compound?
A: 1.48 µM (inactive)

Q: What about the GI50 [25] of the same compound?
A: 2.96 µM (inactive)

Q: What about the GI50 [61] of the same compound?
A: 14.8 µM (inactive)

Q: What about the GI50 [26] of the same compound?
A: 0.581 µM (active)

Q: And the GI50 [27]?
A: 2.17 µM (inactive)

Q: And the GI50 [28]?
A: 2.47 µM (inactive)

Q: What about the GI50 [62] of the same compound?
A: 1.58 µM (inactive)

Q: What about the GI50 [29] of the same compound?
A: 9.25 µM (inactive)

Q: And the GI50 [30]?
A: 0.505 µM (active)

Q: What about the GI50 [31] of the same compound?
A: 1.27 µM (inactive)

Q: What about the GI50 [32] of the same compound?
A: 0.491 µM (active)

Q: What about the GI50 [33] of the same compound?
A: 0.436 µM (active)

Q: And the GI50 [34]?
A: 1.33 µM (inactive)

Q: And the GI50 [35]?
A: 4.66 µM (inactive)

Q: What about the GI50 [36] of the same compound?
A: 1.21 µM (inactive)

Q: What about the GI50 [37] of the same compound?
A: 1.84 µM (inactive)

Q: And the GI50 [63]?
A: 2.75 µM (inactive)

Q: And the GI50 [38]?
A: 5.25 µM (inactive)

Q: And the GI50 [39]?
A: 1.8 µM (inactive)

Q: What about the GI50 [40] of the same compound?
A: 5.79 µM (inactive)

Q: What about the GI50 [64] of the same compound?
A: 3.68 µM (inactive)

Q: What about the GI50 [41] of the same compound?
A: 1.16 µM (inactive)

Q: What about the GI50 [42] of the same compound?
A: 1.34 µM (inactive)

Q: And the GI50 [65]?
A: 2.07 µM (inactive)

Q: And the GI50 [43]?
A: 12.7 µM (inactive)

Q: And the GI50 [44]?
A: 0.15 µM (active)

Q: And the GI50 [45]?
A: 0.425 µM (active)

Q: What about the GI50 [46] of the same compound?
A: 0.155 µM (active)

Q: And the GI50 [66]?
A: 2.17 µM (inactive)

Q: What about the GI50 [47] of the same compound?
A: 7.96 µM (inactive)

Q: And the GI50 [67]?
A: 2.22 µM (inactive)

Q: And the GI50 [48]?
A: 8.95 µM (inactive)

Q: And the GI50 [68]?
A: 0.222 µM (active)

Q: And the GI50 [49]?
A: 2.14 µM (inactive)

Q: What about the GI50 [50] of the same compound?
A: 7.64 µM (inactive)

Q: What about the GI50 [51] of the same compound?
A: 0.807 µM (active)

Q: And the GI50 [52]?
A: 2.75 µM (inactive)

Q: And the GI50 [69]?
A: 2.04 µM (inactive)

Q: What about the GI50 [53] of the same compound?
A: 1.07 µM (active)

Q: And the GI50 [54]?
A: 2.49 µM (inactive)

Q: What about the GI50 [55] of the same compound?
A: 1.03 µM (active)

Q: And the GI50 [56]?
A: 2.25 µM (inactive)
